From publication PMC5551460 (Cell chemical biology, 2017)

Experiments:
DGKα = DGKα (Rattus norvegicus, UniProt P51556); test: ADP-Glo DAG phosphorylation assay in lysate; type: biochemical
DGKζ = DGKζ (Homo sapiens, UniProt Q13574); test: free ATP; type: cell-based
DGKκ = biological target: T1, DGKκ (Homo sapiens, UniProt Q5KSL6); test: free ATP; type: cell-based
T1 sequence (Q5KSL6 1-1271): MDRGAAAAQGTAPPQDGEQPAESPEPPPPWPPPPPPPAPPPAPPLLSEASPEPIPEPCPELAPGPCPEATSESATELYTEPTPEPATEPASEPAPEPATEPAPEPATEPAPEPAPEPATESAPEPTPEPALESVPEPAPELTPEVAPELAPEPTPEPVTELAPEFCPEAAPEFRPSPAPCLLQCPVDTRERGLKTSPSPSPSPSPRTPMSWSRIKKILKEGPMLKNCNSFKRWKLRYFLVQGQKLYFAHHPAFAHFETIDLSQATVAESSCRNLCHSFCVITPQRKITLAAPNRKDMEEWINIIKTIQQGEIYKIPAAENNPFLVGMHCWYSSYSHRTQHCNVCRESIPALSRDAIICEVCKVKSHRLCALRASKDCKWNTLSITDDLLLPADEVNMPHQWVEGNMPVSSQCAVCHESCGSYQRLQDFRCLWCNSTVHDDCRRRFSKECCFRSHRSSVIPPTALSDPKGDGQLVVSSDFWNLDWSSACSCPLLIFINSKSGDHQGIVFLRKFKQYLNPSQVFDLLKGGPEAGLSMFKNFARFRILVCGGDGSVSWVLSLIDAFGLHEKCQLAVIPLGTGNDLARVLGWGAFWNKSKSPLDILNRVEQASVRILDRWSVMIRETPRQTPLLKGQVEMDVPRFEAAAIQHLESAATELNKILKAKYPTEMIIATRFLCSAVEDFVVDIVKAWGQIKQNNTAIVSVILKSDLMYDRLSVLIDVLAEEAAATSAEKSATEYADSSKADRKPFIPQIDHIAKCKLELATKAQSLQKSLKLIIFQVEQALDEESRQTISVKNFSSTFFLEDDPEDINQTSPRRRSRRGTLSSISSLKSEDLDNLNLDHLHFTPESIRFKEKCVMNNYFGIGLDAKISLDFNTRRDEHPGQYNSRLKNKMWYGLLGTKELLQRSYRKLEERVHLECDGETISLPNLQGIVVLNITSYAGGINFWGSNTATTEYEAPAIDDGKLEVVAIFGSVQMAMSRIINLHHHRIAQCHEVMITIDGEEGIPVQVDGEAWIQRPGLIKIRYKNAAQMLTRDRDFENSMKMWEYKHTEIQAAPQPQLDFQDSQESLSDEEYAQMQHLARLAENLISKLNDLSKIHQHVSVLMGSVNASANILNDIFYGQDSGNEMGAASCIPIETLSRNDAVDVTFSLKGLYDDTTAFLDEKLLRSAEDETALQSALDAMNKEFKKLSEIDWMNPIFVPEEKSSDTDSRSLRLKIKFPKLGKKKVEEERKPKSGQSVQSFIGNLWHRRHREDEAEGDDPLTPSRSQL

DGKθ = biological target: T2, DGKθ (Homo sapiens, UniProt P52824); test: free ATP; type: cell-based
T2 sequence (P52824 1-942): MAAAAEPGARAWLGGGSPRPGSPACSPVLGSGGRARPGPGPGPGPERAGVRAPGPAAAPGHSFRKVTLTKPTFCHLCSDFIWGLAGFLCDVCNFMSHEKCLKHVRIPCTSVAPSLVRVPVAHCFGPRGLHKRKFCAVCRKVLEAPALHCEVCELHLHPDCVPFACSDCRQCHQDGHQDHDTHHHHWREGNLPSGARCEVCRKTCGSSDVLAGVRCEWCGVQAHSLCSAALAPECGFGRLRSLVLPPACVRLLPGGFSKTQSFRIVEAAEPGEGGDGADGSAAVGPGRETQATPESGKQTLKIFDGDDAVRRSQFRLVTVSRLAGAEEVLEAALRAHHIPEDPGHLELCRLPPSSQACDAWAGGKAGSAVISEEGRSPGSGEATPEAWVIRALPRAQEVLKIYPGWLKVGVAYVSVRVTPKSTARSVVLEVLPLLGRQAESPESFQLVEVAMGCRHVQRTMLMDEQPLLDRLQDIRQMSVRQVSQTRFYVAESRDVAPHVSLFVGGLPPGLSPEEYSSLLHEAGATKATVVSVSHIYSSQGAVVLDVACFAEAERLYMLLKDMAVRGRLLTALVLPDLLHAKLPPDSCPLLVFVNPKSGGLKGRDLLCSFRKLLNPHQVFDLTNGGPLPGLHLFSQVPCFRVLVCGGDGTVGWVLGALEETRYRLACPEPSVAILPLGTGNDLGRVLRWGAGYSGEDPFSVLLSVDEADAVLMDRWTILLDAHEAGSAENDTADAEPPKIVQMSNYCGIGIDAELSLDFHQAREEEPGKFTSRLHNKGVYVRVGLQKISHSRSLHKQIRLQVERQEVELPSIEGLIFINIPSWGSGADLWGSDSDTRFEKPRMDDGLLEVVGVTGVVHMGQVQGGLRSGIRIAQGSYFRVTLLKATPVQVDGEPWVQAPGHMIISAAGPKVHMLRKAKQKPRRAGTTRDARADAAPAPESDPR

FER [1] = biological target: T3, FER (Homo sapiens, UniProt P16591); test: free ATP competition with ATP acyl phosphate probe, SILAC LC-MS; type: cell-based
FER [2] = biological target: T3, FER; test: ATP acyl phosphate probe competition, SILAC LC-MS; type: cell-based

T3 sequence (P16591 whole entry): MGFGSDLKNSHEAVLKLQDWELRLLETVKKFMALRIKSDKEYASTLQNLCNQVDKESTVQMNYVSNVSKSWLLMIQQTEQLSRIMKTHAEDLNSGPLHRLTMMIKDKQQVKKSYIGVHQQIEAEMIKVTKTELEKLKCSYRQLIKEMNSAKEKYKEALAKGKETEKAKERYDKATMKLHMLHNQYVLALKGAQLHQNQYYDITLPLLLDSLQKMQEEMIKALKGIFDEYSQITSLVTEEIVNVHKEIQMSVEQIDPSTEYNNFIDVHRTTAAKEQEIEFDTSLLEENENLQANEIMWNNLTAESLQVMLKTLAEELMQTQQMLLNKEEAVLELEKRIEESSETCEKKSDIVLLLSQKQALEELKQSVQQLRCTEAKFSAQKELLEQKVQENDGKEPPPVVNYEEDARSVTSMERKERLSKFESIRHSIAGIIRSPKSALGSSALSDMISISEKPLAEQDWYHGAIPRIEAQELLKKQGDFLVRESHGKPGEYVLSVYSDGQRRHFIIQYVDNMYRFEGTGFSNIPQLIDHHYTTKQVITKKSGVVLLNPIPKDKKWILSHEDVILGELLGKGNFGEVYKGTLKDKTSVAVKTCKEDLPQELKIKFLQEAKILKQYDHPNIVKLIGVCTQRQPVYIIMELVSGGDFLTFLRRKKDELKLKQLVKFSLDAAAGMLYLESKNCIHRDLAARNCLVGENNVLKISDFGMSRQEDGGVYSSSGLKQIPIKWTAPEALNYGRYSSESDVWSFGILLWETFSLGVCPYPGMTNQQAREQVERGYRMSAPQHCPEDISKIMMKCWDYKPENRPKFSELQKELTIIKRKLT
DGKζ, sequence (Q13574 whole entry): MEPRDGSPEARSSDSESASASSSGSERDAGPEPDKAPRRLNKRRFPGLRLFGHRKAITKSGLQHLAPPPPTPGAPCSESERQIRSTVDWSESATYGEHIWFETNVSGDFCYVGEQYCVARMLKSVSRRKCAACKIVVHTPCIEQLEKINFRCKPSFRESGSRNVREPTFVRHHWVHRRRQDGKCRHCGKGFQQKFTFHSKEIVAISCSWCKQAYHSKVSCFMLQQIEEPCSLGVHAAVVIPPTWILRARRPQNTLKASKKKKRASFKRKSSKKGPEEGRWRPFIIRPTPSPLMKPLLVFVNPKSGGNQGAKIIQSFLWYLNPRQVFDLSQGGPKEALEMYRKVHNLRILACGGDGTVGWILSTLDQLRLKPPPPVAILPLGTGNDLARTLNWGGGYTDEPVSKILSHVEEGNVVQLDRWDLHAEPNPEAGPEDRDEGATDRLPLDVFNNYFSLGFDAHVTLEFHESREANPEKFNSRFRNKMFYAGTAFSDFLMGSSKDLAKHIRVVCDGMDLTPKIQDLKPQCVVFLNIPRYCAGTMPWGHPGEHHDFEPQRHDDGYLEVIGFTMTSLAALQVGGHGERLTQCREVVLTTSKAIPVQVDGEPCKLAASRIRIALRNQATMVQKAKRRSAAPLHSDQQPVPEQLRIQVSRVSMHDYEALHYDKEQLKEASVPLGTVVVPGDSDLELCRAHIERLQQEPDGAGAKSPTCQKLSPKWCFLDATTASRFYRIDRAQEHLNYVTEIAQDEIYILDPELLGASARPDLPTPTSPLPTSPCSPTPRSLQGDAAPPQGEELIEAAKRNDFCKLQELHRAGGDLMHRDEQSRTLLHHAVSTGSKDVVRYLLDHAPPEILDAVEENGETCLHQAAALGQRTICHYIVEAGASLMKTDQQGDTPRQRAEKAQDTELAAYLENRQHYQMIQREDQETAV
DGKα, sequence (P51556 whole entry): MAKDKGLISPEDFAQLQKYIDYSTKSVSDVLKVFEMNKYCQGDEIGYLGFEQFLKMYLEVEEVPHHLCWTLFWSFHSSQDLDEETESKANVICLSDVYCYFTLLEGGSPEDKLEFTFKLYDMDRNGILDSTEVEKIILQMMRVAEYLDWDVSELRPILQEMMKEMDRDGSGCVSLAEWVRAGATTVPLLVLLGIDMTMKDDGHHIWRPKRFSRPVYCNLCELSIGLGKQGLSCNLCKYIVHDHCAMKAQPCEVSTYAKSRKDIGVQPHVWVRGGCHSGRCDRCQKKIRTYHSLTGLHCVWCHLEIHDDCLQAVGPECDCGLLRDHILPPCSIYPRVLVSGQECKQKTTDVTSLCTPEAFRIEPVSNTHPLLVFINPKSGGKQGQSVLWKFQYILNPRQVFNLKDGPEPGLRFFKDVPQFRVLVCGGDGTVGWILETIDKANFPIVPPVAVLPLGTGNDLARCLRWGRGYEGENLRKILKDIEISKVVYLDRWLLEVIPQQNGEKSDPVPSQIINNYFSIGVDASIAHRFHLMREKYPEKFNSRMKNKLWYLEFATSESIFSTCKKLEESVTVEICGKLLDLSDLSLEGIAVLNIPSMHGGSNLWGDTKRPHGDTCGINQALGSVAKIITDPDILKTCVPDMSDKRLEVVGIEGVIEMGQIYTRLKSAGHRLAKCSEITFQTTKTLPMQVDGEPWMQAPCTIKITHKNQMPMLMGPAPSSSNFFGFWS

Fc1ccc(C(=C2CCNCC2)c2ccc(F)cc2)cc1 [RF001] gave an IC50 (DGKα) of 223 µM.

Nc1ncnc2c1ncn2[C@@H]1O[C@H](COP(=O)(O)OP(=O)(O)OP(=O)(O)O)[C@@H](O)[C@H]1O [ATP] was tested, and the “free ATP (1 mM) competition with ATP acyl phosphate probe, SILAC LC-MS” value (from here on “free ATP (1 mM) competition”) (DGKζ) was 16.7, the “free ATP (1 mM) competition” value (DGKκ) was 15.0 and the “free ATP (1 mM) competition” value (DGKθ) was 14.4. The “free ATP competition with ATP acyl phosphate probe, SILAC LC-MS” value (FER [1]) was 19.3.

In the case of Cc1nc2sccn2c(=O)c1CCN1CCC(=C(c2ccc(F)cc2)c2ccc(F)cc2)CC1 [ritanserin], the “ATP acyl phosphate probe competition, SILAC LC-MS (100 μM compound, SR = 7.9)” value (FER [2]) is reported as 7.9.
